Assay [1] concerns S. cerevisiae MN8140X. The following applies: 100 mM of acetic acid. The text has this:
A medium formed of 10 g/L of a yeast extract, 20 g/L of polypeptone, 80 g/L of glucose, and 60 g/L of xylose was used as the solution using glucose and xylose as carbon sources.

Assay [2] deals with ΔPHO13 strain (S. cerevisiae BY4741X with PHO13 deleted). It counts as cell-based. The conditions noted are these: for amount of production of ethanol: 80 g/L xylose. An excerpt: (§1) A solution obtained by incorporating 80 g/L of xylose into a YP medium (containing 1% of a yeast extract, 2% of peptone, and 0.5% of […]) was used as a material using xylose as a carbon source. […]

The test system of assay [3] is BY4741X strain (control). The assay is described as follows: Fermentation with xylose as carbon source by the control strain in the presence of a fermentation inhibitor. The conditions noted are these: 72 hours. It counts as cell-based, S. cerevisiae.
From the text: as §1

[4] abbreviates: 60 mM of acetic acid, after 24 hours.
The mark [5] stands for this setting: 60 mM of acetic acid, after 72 hours.
[6] abbreviates: 30 mM of formic acid, after 24 hours.
Where [7] appears, read: 30 mM of formic acid, after 72 hours.
[8] abbreviates: 60 mM of furfural versus no furfural, 72 hours.
Where [9] appears, read: 90 mM of furfural, after 24 hours.
The mark [10] stands for this setting: 90 mM of furfural, after 72 hours.

Read-outs that look alike come from different tables or passages of the source.

Turning to `CC(=O)O` [acetic acid], in assay [1], the “action in ethanol production by the yeast” value is reported as “showed a fermentation inhibitory action”. Moreover, the “amount of production of ethanol” value in assay [1] (fermentation 48 hours, 30° C.) was “also suppressed”; in assay [2] (setting [4]), 13 g/L; in assay [2] (setting [5]), 20 g/L. Moreover, in assay [1] (fermentation 48 hours, 30° C.), the “consumption of glucose as a carbon source” value is reported as “suppressed”. In assay [2], the “resistance of the strain to the fermentation inhibitor in ethanol production using xylose as a carbon source” value is recorded as “resistant”. The entries for the “amount of production of ethanol relative to control (BY4741X strain)” value in assay [2] (setting [4]) and in assay [2] (setting [5]) were 2.3 times and 1.4 times, respectively. Moreover, the “consumption rate of xylose” value in assay [2] (acetic acid 0, 30 and 60 mM, 72 hours) is given as “reduced depending on an acetic acid concentration”; in assay [3] (acetic acid 0, 30 and 60 mM), “reduced depending on an acetic acid concentration”.
Take `O=CO` [formic acid]: the “resistance of the strain to the fermentation inhibitor in ethanol production using xylose as a carbon source” value in assay [2] is “resistant”. Moreover, the “amount of production of ethanol relative to control (BY4741X strain)” value in assay [2] (setting [6]) amounted to 4.1 times; in assay [2] (setting [7]), 5.5 times. Moreover, the “amount of production of ethanol” value is listed as 6 g/L in assay [2] (setting [6]) and 11 g/L in assay [2] (setting [7]). The “xylose consumption and ethanol production versus inhibitor concentration” value in assay [2] (formic acid 0, 15 and 30 mM, 72 hours) is “a tendency similar to that in the case of acetic acid was observed”.
With `O=Cc1ccco1` [furfural], the “resistance of the strain to the fermentation inhibitor in ethanol production using xylose as a carbon source” value in assay [2] was “resistant”. For the same molecule, in assay [2] (setting [8]), the “consumption rate of xylose” value is “substantially the same as that in the case where furfural was not incorporated” and the ethanol-producing ability result was “effective ethanol production was similarly observed”. Moreover, in assay [2] (setting [9]), the “amount of production of ethanol relative to control (BY4741X strain)” value was determined as 27.5 times and the “amount of production of ethanol” value is 21 g/L. Besides, in assay [2] (setting [10]), the “amount of production of ethanol relative to control (BY4741X strain)” value worked out at 5.5 times and the “amount of production of ethanol” value is reported as 31 g/L. The “consumption rate of xylose” value in assay [3] (furfural 60 and 90 mM versus 0 mM) was “reduced”.
